Experimental data from US6875760B2 (Novo Nordisk A/S, priority 1999, dated 2005).

Each compound was assayed against T1, human glucagon receptor (Homo sapiens, UniProt P47871) (assay: Glucagon Binding Assay (III)). Conditions: BHK cell membranes, WGA SPA beads, 125I-glucagon; read-out: Glu Bd Assay (III) IC50.
T1 construct: expressed in transfected cells; host or cells: BHK (baby hamster kidney) cells
In short: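 Non-specific binding was set with 500 nM glucagon in this SPA-type binding assay using WGA beads. The receptor source was a membrane preparation, kept on ice or at 4 °C, from BHK cells transfected with the human receptor. Scintillation counts were taken after 4 hours of shaking and 8–48 hours of settling.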

T1 sequence (P47871 26-477): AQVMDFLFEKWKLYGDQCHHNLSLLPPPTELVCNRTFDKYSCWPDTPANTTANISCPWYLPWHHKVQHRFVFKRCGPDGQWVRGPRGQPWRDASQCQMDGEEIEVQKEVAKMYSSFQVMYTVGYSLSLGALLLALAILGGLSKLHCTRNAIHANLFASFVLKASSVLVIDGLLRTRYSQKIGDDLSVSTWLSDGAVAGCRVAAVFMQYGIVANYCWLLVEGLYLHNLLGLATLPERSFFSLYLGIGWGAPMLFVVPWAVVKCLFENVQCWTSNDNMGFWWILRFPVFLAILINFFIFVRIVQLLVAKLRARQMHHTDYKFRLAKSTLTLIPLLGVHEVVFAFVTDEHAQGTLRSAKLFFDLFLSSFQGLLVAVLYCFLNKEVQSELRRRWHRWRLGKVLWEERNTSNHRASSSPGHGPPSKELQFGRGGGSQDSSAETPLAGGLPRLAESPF

Compound	IC50
O=C(Nc1nn[nH]n1)c1ccc(CN(CC(c2ccccc2)c2ccccc2)C(=O)Cc2ccc(OC(F)(F)F)cc2)cc1 [Example 531]	627 nM
CS(=O)(=O)c1cc(NC(=O)N(Cc2ccc(C(=O)Nc3nn[nH]n3)cc2)c2ccc(C3CCCCC3)cc2)ccc1OC(F)(F)F [Example 314, 4-[1-(4-Cyclohexylphenyl)-3-(3-methylsulfonyl-4-trifluoromethoxyphenyl)ureidomethyl]-N-(2H-tetrazol-5-yl)benzamide]	62 nM
Cn1nnc(-c2cccc(NC(=O)N(Cc3ccc(C(=O)Nc4nn[nH]n4)cc3)c3ccc(C(C)(C)C)cc3)c2)n1 [Example 370, 4-{1-(4-tert-Butylphenyl)-3-[3-(2-methyl-2H-tetrazol-5-yl)phenyl]ureidomethyl}-N-(2H-5-yl)benzamide]	87 nM
O=C(Nc1nn[nH]n1)c1ccc(CN(C(=O)Nc2ccc(OC(F)(F)F)cc2)c2ccc(C3CCCCC3)cc2)cc1 [Example 291, 4-[1-(4-Cyclohexylphenyl)-3-(4-trifluoromethoxyphenyl)ureidomethyl]-N-(2H-tetrazol-5-yl)benzamide]	42 nM
CCCCC(CC)CN(Cc1ccc(C(=O)NCCC(=O)O)cc1)C(=O)Nc1ccc(Cl)cc1 (stereo not drawn) [Example 38, 3-{4-[3-(4-Chlorophenyl)-1-(2-ethylhexyl)ureidomethyl]benzoylamino}propionic acid]	928 nM
O=C(Nc1nn[nH]n1)c1ccc(CN(C(=O)c2ccc(OC(F)(F)F)cc2)c2ccc(C3CCCCC3)cc2)cc1 [Example 485, 4-{[(4-Cyclohexylphenyl)-(4-triflourmethoxybenzoyl)amino]methyl}-N-(2H-tetrazol-5-yl)benzamide]	810 nM
CN(C)C(=O)c1cccc(NC(=O)N(Cc2ccc(C(=O)Nc3nn[nH]n3)cc2)c2ccc(C3CCCCC3)cc2)c1 [Example 463, N,N-Dimethyl-3-{3-(4-cyclohexylphenyl)-3-[4-(2H-tetrazol-5-ylcarbamoyl)benzyl]ureido}benzamide]	256 nM
CC(C)(C)C1CCC(N(Cc2ccc(C(=O)NCCC(=O)O)cc2)C(=O)Nc2ccc(-c3ccc(C#N)cc3)cc2)CC1 (stereo not drawn) [Example 68, 3-{4-[1-(4-tert-Butylcyclohexyl)-3-(4′-cyanobiphenyl-4-yl)ureidomethyl]benzoylamino}propionic acid]	552 nM
CC(C)(C)C1CCC(N(Cc2ccc(C(=O)Nc3nn[nH]n3)cc2)C(=O)c2ccc(OC(F)(F)F)cc2)CC1 (stereo not drawn) [Example 489, 4-{[(4-tert-Butylcyclohexyl)-(4-triflourmethoxybenzoyl)amino]methyl}-N-(2H-tetrazol-5-yl)benzamide]	150 nM
CS(=O)(=O)Cc1cccc(NC(=O)N(Cc2ccc(C(=O)Nc3nn[nH]n3)cc2)c2ccc(C3CCCCC3)cc2)c1 [Example 369, 4-[1-(4-Cyclohexylphenyl)-3-(3-methylsulfonylmethylphenyl)ureidomethyl]-N-(2H-tetrazol-5-yl)benzamide]	558 nM
CC(C)c1ccc(NC(=O)N(Cc2ccc(C(=O)NCCC(=O)O)cc2)C2CCC(C(C)(C)C)CC2)cc1 (stereo not drawn) [Example 29, 3-{4-[1-(4-tert-Butylcyclohexyl)-3-(4-isopropylphenyl)ureidomethyl]benzoyl}aminopropionic acid]	149 nM
CC1CCC(N(Cc2ccc(C(=O)NCCC(=O)O)cc2)C(=O)Nc2ccc(Oc3ccccc3)cc2)CC1 (stereo not drawn) [Example 22, 3-{4-[1-(4-Methylcyclohexyl)-3-(4-phenoxyphenyl)ureidomethyl]benzoylamino}propionic acid]	1100 nM
CC(C)(C)c1ccc(N(Cc2ccc(C(=O)Nc3nn[nH]n3)cc2)C(=O)Oc2ccc(S(C)(=O)=O)cc2)cc1 [Example 624]	2000 nM
O=C(Nc1nn[nH]n1)c1ccc(CN(C(=O)Nc2ccc(OC(F)(F)F)cc2)c2ccc(N3CCCCC3)cc2)cc1 [Example 318, 4-[1-(4-Piperidin-1-ylphenyl)-3-(4-trifluoromethoxyphenyl)ureidomethyl]-N-(2H-tetrazol-5-yl)benzamide]	247 nM
CC(Oc1cccc(Cl)c1)C(=O)N(Cc1ccc(C(=O)Nc2nn[nH]n2)cc1)c1ccc(C2CCCCC2)cc1 (stereo not drawn) [Example 498, 4-{[[2-(3-Chlorophenoxy)propionyl]-(4-cyclohexylphenyl)amino]methyl}-N-(2H-tetrazol-5-yl)benzamide]	621 nM
CC(C)(C)[C@H]1CC[C@H](N(Cc2ccc(C(=O)NCCC(=O)O)cc2)C(=O)Nc2cc(Cl)c(Cl)c(Cl)c2)CC1 [Example 238, 3-{4-[1-(trans-4-tert-Butylcyclohexyl)-3-(3,4,5-trichlorophenyl)ureidomethyl]benzoylamino}propionic acid]	103 nM

Now from value to compound:

IC50	Compound
773 nM	O=C(Nc1nn[nH]n1)c1ccc(CN(C(=O)Nc2ccc3c(c2)S(=O)(=O)CC3)c2ccc(C3CCCCC3)cc2)cc1 [Example 258, 4-[1-(4-Cyclohexylphenyl)-3-(1,1-dioxo-2,3-dihydro-1H-1-benzo[b]thiophen-6-yl)ureidomethyl]-N-(2H-tetrazol-5-yl)benzamide]
45 nM	CC(C)N1C(=O)c2ccc(NC(=O)N(Cc3ccc(C(=O)Nc4nn[nH]n4)cc3)C3CCC(C(C)(C)C)CC3)cc2C1=O (stereo not drawn) [Example 629, 4-[1-(4-tert-Butylcyclohexyl)-3-(N′-isopropylphthalimid-5-yl)ureidomethyl]-N-(2H-tetrazol-5-yl)benzamide]
1170 nM	CC(C)(C)[C@H]1CC[C@H](N(Cc2ccc(C(=O)NCCC(=O)O)cc2)C(=O)Nc2cc(-c3ccccc3)n[nH]2)CC1 [Example 253, 3-{4-[1-(4-trans-tert-Butylcyclohexyl)-3-(5-Phenyl-2H-pyrazol-3-yl)ureidomethyl]benzoylamino}propionic acid]
112 nM	C[C@@H](NC(=O)N(Cc1ccc(C(=O)Nc2nn[nH]n2)cc1)c1ccc(C2=CCCCC2)cc1)c1ccc(Br)cc1 [Example 355, (R)-4-[3-[1-(4-Bromophenyl)ethyl]-1-(cyclohex-1-enylphenyl)ureidomethyl]-N-(2H-tetrazol-5-yl)benzamide]
227 nM	CCCCC(CC)CN(Cc1ccc(C(=O)NCCC(=O)O)cc1)C(=O)Nc1ccc(C)cc1 (stereo not drawn) [Example 39, 3-{4-[1-(2-Ethylhexyl)-3-p-tolylureidomethyl]benzoylamino}propionic acid]
306 nM	O=C(Nc1nn[nH]n1)c1ccc(CN(C(=O)c2cccc(Cl)c2)c2ccc(C3=CCCCC3)cc2)cc1 [Example 495, 4-({(4-Cyclohex-1-enylphenyl)-(3-chlorobenzoyl)amino}methyl)-N-(2H-tetrazol-5-yl)benzamide]
26 nM	CC(C)(C)c1ccc(N(Cc2ccc(C(=O)Nc3nn[nH]n3)cc2)C(=O)Nc2cc(Cl)cc(Cl)c2)cc1 [Example 333, 4-[1-(4-tert-Butylphenyl)-3-(3,5-dichlorophenyl)ureidomethyl]-N-(2H-tetrazol-5-yl)benzamide]
179 nM	COc1ccc(NC(=O)N(Cc2ccc(C(=O)Nc3nn[nH]n3)cc2)c2ccc(C3CCCCC3)cc2)cc1S(C)(=O)=O [Example 340, 4-[1-(4-Cyclohexylphenyl)-3-(3-methylsulfonyl-4-methoxyphenyl)ureidomethyl]-N-(2H-tetrazol-5-yl)benzamide]
4 nM	O=C(Nc1nn[nH]n1)c1ccc(CN(C(=O)Nc2ccc3c(c2)C(=O)N(CC2CC2)C3=O)c2ccc(C3=CCCCC3)cc2)cc1 [Example 644, 4-[3-(N′-[Cyclopropylmethyl]phthalimid-4-yl)-1-(4-cyclohex-1-enylphenyl)ureidomethyl]-N-(2H-tetrazol-5-yl)benzamide]
126 nM	O=C(O)CCNC(=O)c1ccc(CN(C(=O)Nc2ccc(OC(F)(F)F)cc2)c2ccc(N3CCCCC3)cc2)cc1 [Example 434, 3-{4-[1-(4-Piperidin-1-ylphenyl)-3-(4-trifluoromethoxyphenyl)ureidomethyl]benzoylamino}propionic acid]
86 nM	CC(C)(C)[C@H]1CC[C@H](N(Cc2ccc(C(=O)NCCC(=O)O)cc2)NC(=O)c2ccc(OC(F)(F)F)cc2)CC1 [Example 429, 3-{4-[N-(trans-4-tert-Butylcyclohexyl)-N′-(4-trifluoromethoxybenzoyl)hydrazinomethyl]benzoylamino}propionic acid]
1990 nM	O=C(O)CCNC(=O)c1ccc(CN(C(=O)Nc2ccc(OC(F)(F)F)cc2)c2cnc3ccccc3c2)cc1 [Example 436, 3-{4-[1-Quinolin-3-yl-3-(4-trifluoromethoxyphenyl)ureidomethyl]benzoylamino}propionic acid]
98 nM	CC(C)(C)C1CCC(N(Cc2ccc(C(=O)Nc3nn[nH]n3)cc2)C(=O)c2ccc(C3CCCCC3)cc2)CC1 (stereo not drawn) [Example 488, 4-{[(4-tert-Butylcyclohexyl)-(4-cyclohexylbenzoyl)amino]methyl}-N-(2H-tetrazol-5-yl)benzamide]
18 nM	COc1cc(NC(=O)N(Cc2ccc(C(=O)Nc3nn[nH]n3)cc2)c2ccc(C3CCCCC3)cc2)cc(C(F)(F)F)c1 [Example 319, 4-[1-(4-Cyclohexylphenyl)-3-(3-methoxy-5-trifluoromethylphenyl)ureidomethyl]-N-(2H-tetrazol-5-yl)benzamide]
528 nM	O=C(O)CCNC(=O)c1ccc(CN(C(=O)Nc2ccc(OC(F)(F)F)cc2)C2CCC(Oc3ccccc3)CC2)cc1 (stereo not drawn) [Example 244, 3-{4-[1-(4-Phenoxycyclohexyl)-3-(4-trifluoromethoxyphenyl)ureidomethyl]benzoylamino}propionic acid]
30 nM	CC(C)(C)c1ccc(N(Cc2ccc(C(=O)Nc3nn[nH]n3)cc2)C(=O)Nc2ccc(Cl)c(C(F)(F)F)c2)cc1 [Example 331, 4-[1-(4-tert-Butylphenyl)-3-(4-chloro-3-trifluoromethylphenyl)ureidomethyl]-N-(2H-tetrazol-5-yl)benzamide]

Same assay, conditions: Glu Bd Assay (III) IC50 (nM), BHK cell membranes, WGA SPA beads, 125I-glucagon

Compound	IC50
CC(C)(C)[C@H]1CC[C@H](N(Cc2ccc(C(=O)N3CCCC(C(=O)O)C3)cc2)C(=O)Nc2ccc(OC(F)(F)F)cc2)CC1 (relative stereo) [Example 94, 1-{4-[1-(trans-4-tert-Butylcyclohexyl)-3-(4-trifluoromethoxyphenyl)ureidomethyl]benzoyl}piperidine-3-carboxylic acid]	1000 nM
